According to patent EP0791056B1, “LIPID-CLEAVAGE ENZYME COMPLEX” (priority 1994, dated 1996):

Key:
[1] = system: Zellhomogenate humaner PBL; assay: Enzymatic cleavage of [14C]-AZT-DMDOPE by cell homogenates, TLC of metabolites; format: in vitro ADME, human
Procedure: Die Spaltung von AZT-DMDOPE wurde mit Hilfe eines Enzym-Assays mit [^14C]-AZT-DMDOPE und AZT-DMDOPE als Substrat untersucht. Als Enzymquelle wurden zunächst Zellhomogenate von CEM-SS-Zellen und humanen PBL verwendet. Tab.
Letztere wurden sowohl nach Stimulation mit PHA-M als auch in nichtstimuliertem Zustand direkt nach ihrer Isolierung homogenisiert und im Enzym-Assay eingesetzt.
Zur Herstellung der Zellhomogenate wurden Zellsuspensionen mit einer Dichte von 5 x10^7 Zellen/ml 50 mM Tris (pH 7.4) im Glashomogenisator mechanisch aufgeschlossen. Der Zellaufschluß wurde hierbei im Umkehr-Phasenkontrast-Mikroskop optisch kontrolliert. Tab.
Zunächst wurde 1 ml dieses Zellhomogenales in dem Enzym-Assay ohne vorherige Bestimmung der Proteinkonzentration eingesetzt.
Zur Gewährleistung einer Substratsättigung wurden weitere 50 nmol der nichtradioaktiv markierten Verbindung hinzugefügt. [^14C]-AZT-DMDOPE trägt die radioaktive Markierung im Thioetherlipidteil und erlaubt somit eine eindeutige Identifikation der potentiellen Metabolits [^14-C]DMDOP.
Die Ansätze wurden für 1, 3, 6 und 24 h im Wasserbad bei 37 °C inkubiert. Als Vergleich wurde ein Ansatz ohne Zugabe von Zellhomogenat mitgeführt. Anschließend wurden die Spaltprodukte mit Diethylether:2-Propanol (9:1, v/v) extrahiert und dünnschichtchromatographisch im IBA- und IBAE-System analysiert (Abb. 18). […]

LCE = assay: Substrate cleavage by LCE; format: biochemical; conditions: cleavage to drug monophosphate and DMDOP
Text: Das Enzym wird vorzugsweise aus humanen peripheren Blutleukozyten, die zuvor durch PHA oder andere Stimulantien (z.B. Cytokine, etc.) aktiviert wurden, oder aus murinen Nierenzellen isoliert. Aus vorläufigen Untersuchungen ergibt sich ein Molekulargewicht von etwa 120.000 - 160.000, bestimmt nach der SDS-PAGE-Methode. Zellen, die dieses Enzym enthalten, können auf einfache Weise dadurch identifiziert werden, indem sie unter geeigneten Testbedingungen mit einer Lösung von AZT-DMDOPE oder FLT-DMDOPE versetzt werden und die Spaltprodukte AZT-monophosphat bzw. FLT-monophosphat oder DMDOP nachgewiesen werden, beispielsweise durch dünnschichtchromatographische Methoden oder im Fall von radioaktiv markierten Proben durch szintillatographische Verfahren (siehe Beispiele 4 - 7). Im Gegensatz zu den biochemisch verwandten Phospholipasen C oder -D wird das LCE nicht durch bekannte Inhibitoren von Phospholipase C oder -D gehemmt oder durch Aktivatoren von Phospholipase C oder -D aktiviert. Im Gegensatz zu Phospholipase C wird das Enzym durch die Substanz D 609 (Tricyclodecan-9-yl-xanthogenat; C11H15OS2 K) aktiviert, während D 609 Phospholipase C inhibiert.

## CCCCCCCCCCCCSCC(COP(=O)(O)OC[C@H]1O[C@@H](n2cc(C)c(=O)[nH]c2=O)C[C@@H]1N=[N+]=[N-])OCCCCCCCCCC (some centres unmarked) [AZT-DMDOPE, (3'-Desoxy-3'-azidothymidin)-5'-phosphorsäure-(3-dodecyl-mercapto-2-decyloxy)-propylester]
[1]
  Metabolisierung von AZT-DMDOPE: zu DMDOP und AZT-MP metabolisiert
LCE
  Spaltung durch LCE: spaltet
